# Measurements from patent US20100260830A1, “Liposomal Formulations of Tocopheryl Amides” (priority 2009, published 2010).
# Like-named read-outs stand apart in the source and are kept apart here.
# How the values were obtained:
# Jurkat T cells = experiment: Mitochondrial membrane potential ΔΨ, flow cytometry with JC-1 probe; assay type: cell-based
# Source text: FIG. 3 illustrates the effect of selected chromans on mitochondrial membrane potential ΔΨ in vitro. […] Deviations in ΔΨ were estimated by flow cytometry followed by cell staining with the polychromatic JC-1 probe.
# [1] = tested on: mouse melanoma B16F10 cells; experiment: Cytotoxic effect on melanoma cells in vitro
# Procedure: (§1) IC50 values were calculated from MTT activity (Bank, U et al, 1991, Measurement of cellular activity by means of the MTT-test. Allerg Immunol 37:119-123).
# [2] = tested on: human breast cancer cell line MCF-7; experiment: MTT cytotoxicity IC50; assay type: cell-based; conditions: calculated from MTT activity
# Procedure: as §1
# [3] = General toxicity in mice by the Berlin Test; assay type: in vivo; conditions: 5 mg/kg in DMSO
# Source text: The general toxicity of liposomal preparations of αTAM was studied further in mice by the Berlin Test. Untreated mice and mice treated with empty liposomes were used as controls. […] Symptoms including spasms and heavy breathing pointed to neurotoxicity, embolie or anaphylactic reaction. Therefore, we have discontinued experiments that involved the use of non-liposomal formulations of αTAM.
# [4] = tested on: granulocyte/macrophage colony forming cells (GM-CFC); experiment: GM-CFC colony formation in vitro; assay type: cell-based, Balb/c mouse; conditions: Balb/c bone marrow GM progenitors
# Procedure: FIGS. 8A and 8B are comparative views illustrating the paradoxical effect of the liposomal formulation on non-specific toxicity, here to granulocyte/macrophage colony forming cells (GM-CFC). […] In the left panel, GM progenitors were isolated from Balb/c mouse bone morrow and treated with αTOS (left) or αTAM (right, black bars) at the concentrations shown, the number of colonies was counted and expressed per individual well. In the right panel, Balb/c mice were injected i.p. with the vehicle (40), empty liposomes (41) liposomal αTOS at 100 mg/kg (42), αTAM at 10 mg/kg (43), or αTAM at 25 mg/kg (44), and GM-CFC colonies in femoral bone marrow counted 48 h later (* denotes statistically significant differences with pb0.05 in comparison to control). […] This surprising result is paradoxical, and points to the importance of the formulation vehicle as a technological advance in achieving clinical trials of these compounds.
# [5] = Injection of αTAM dissolved in DMSO or ethanol (Prior Art I); assay type: in vivo, mice
# Source text: In earlier work to develop a formulation of αTAM for preclinical study, the compound was first dissolved in DMSO or ethanol as has been characteristic of studies of this kind (Weber et al, 2002, Vitamin E succinate is a potent novel antineoplastic agent with high selectivity and cooperativity with tumor necrosis factor-related apoptosis-inducing ligand (Apo2 ligand) in vivo, Clin Cancer Res 8:863-69; Yu et al, 1999, Induction of apoptosis in human breast cancer cells by tocopherols and tocotrienols, Nutr Cancer 33:26-32).
# Meso-2 cells = experiment: IC50 against Meso-2 cells (FIG. 14A); assay type: cell-based; conditions: values only in FIG. 14A
# Source text: In FIG. 14A, esters and amides of the chromanol and N-chroman genera are compared. […] There is a correlation between increased potency and CLogP, where amide lipophilicity is consistently greater than that of the corresponding esters. Other factors of molecular structure also play a role.
# [6] = tested on: non-malignant cells (e.g. lymphocytes and bone marrow progenitors); experiment: In vitro models of non-malignant cells; assay type: cell-based
molecule,measurement,setting,value
"Cc1c(C)c2c(c(C)c1NC(=O)/C=C\C(=O)O)CCC(C)(CCCC(C)CCCC(C)CCCC(C)C)O2 (stereo not drawn) [αTAM, α-tocopheryl maleamide]",dissipating mitochondrial inner transmembrane potential,Jurkat T cells,potent in dissipating mitochondrial inner transmembrane potential
same,cytotoxic potential (order),[1],αTAM>αTOM>αTOS>>αTOH
same,IC50,[2],13.3 µM
same,outcome of free compound administered in DMSO,[3],caused rapid death of the animals
same,toxicity to GM progenitors in vitro,[4],the compound is toxic in vitro
same,outcome of one or two injections in DMSO,"[5]; Balb/c, C57B1 or FVB/N c-neu mice",caused death of the animals
same,toxicity of solution in DMSO (or ethanol),[5]; non-liposomal solution,extremely toxic
same,cytolytic potency versus the corresponding tocopheryl succinates,Meso-2 cells,markedly increased cytolytic potency
same,cytotoxicity to non-malignant cells,[6],cytotoxic to non-malignant cells
same,tolerated dose,given in liposomal formulation,500 μg per 20 g mouse
same,dose feasible for human use,"mouse, in vivo",1.75 g
same,safe dose,"mouse, in vivo",25 mg/kg
"Cc1c(C)c2c(c(C)c1NC(=O)CCC(=O)O)CCC(C)(CCCC(C)CCCC(C)CCCC(C)C)O2 (stereo not drawn) [αTAS, α-tocopheryl succinamide]",dissipating mitochondrial inner transmembrane potential,Jurkat T cells,potent in dissipating mitochondrial inner transmembrane potential
Cc1c(C)c2c(c(C)c1O)CC[C@@](C)(CCC[C@H](C)CCC[C@H](C)CCCC(C)C)O2 [αTOH],cytotoxic potential (order),[1],No toxicity was observed
tocopheryl succinate [αTOS],cytotoxic potential (order),[1]; B16F10 in vitro,αTAM>αTOM>αTOS>>αTOH
